PubChem BioAssay AID2060897 (Molecular Pharmacology Branch, DTP, NCI, 2025)

System: 966289-007-R4-J1-PDC complex spheroid viability
Assay: Anticancer human tumor 966289-007-R4-J1-PDC patient-derived pancreatic adenocarcinoma cell line growth inhibition [RAS]
Details: for IC50: curve of first compound; for viability, T/C: stronger effect = lower value
How it was run: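 Multi-cell-type spheroids: tumor cells plus HUVEC endothelial cells and mesenchymal stem cells. RAS-pathway inhibitors were combined with targeted agents, each dosed in half-log steps down from clinical Cmax, or from 10 microM when Cmax was unknown.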
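Also: spheroids exposed to agents for one week before readout.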
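For viability, T/C in this document: percent viability relative to DMSO vehicle control wells as 100%.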

- IC50 (second compound 0.000949 µM): 4.98 nM
- IC50 (second compound 0.003 µM): 5.32 nM
- IC50 (second compound 0.00949 µM): 4.93 nM
- IC50 (second compound 0.03 µM): 3.82 nM
- IC50 (second compound 0.0949 µM): 4.06 nM
- IC50 (second compound 0.3 µM): 2.89 nM
SMILES: CC1(C)CCC(Nc2ncc(C(F)(F)F)c(-c3c[nH]c4c(P(C)(C)=O)c(C#N)ccc34)n2)CN1 (configuration not stated) + CCn1c(-c2cccnc2C(C)OC)c2c3cc(ccc31)N1CCOC(CC(NC(=O)C(C(C)C)N(C)C(=O)C3(F)CCN(C(=O)C#CC(C)(C)N(C)C)CC3)C(=O)N3CCCC(N3)C(=O)OCC(C)(C)C2)C1
- viability, T/C (second compound 0.000949 µM, first compound 0.000949 µM): 136%
- viability, T/C (second compound 0.000949 µM, first compound 0.003 µM): 75.5%
- viability, T/C (second compound 0.000949 µM, first compound 0.00949 µM): 17.6%
- viability, T/C (second compound 0.000949 µM, first compound 0.03 µM): 7.64%
- viability, T/C (second compound 0.000949 µM, first compound 0.0949 µM): 5.45%
- viability, T/C (second compound 0.000949 µM, first compound 0.3 µM): 7.38%
- viability, T/C (second compound 0.003 µM, first compound 0.000949 µM): 90.5%
- viability, T/C (second compound 0.003 µM, first compound 0.003 µM): 77.4%
- viability, T/C (second compound 0.003 µM, first compound 0.00949 µM): 22.3%
- viability, T/C (second compound 0.003 µM, first compound 0.03 µM): 7.6%
- viability, T/C (second compound 0.003 µM, first compound 0.0949 µM): 5.79%
- viability, T/C (second compound 0.003 µM, first compound 0.3 µM): 7.11%
- viability, T/C (second compound 0.00949 µM, first compound 0.000949 µM): 83.3%
- viability, T/C (second compound 0.00949 µM, first compound 0.003 µM): 75.1%
- viability, T/C (second compound 0.00949 µM, first compound 0.00949 µM): 16.9%
- viability, T/C (second compound 0.00949 µM, first compound 0.03 µM): 8.28%
- viability, T/C (second compound 0.00949 µM, first compound 0.0949 µM): 5.11%
- viability, T/C (second compound 0.00949 µM, first compound 0.3 µM): 5.09%
- viability, T/C (second compound 0.03 µM, first compound 0.000949 µM): 72%
- viability, T/C (second compound 0.03 µM, first compound 0.003 µM): 59.6%
- viability, T/C (second compound 0.03 µM, first compound 0.00949 µM): 13.6%
- viability, T/C (second compound 0.03 µM, first compound 0.03 µM): 5.23%
- viability, T/C (second compound 0.03 µM, first compound 0.0949 µM): 4.63%
- viability, T/C (second compound 0.03 µM, first compound 0.3 µM): 3.91%
- viability, T/C (second compound 0.0949 µM, first compound 0.000949 µM): 71.8%
- viability, T/C (second compound 0.0949 µM, first compound 0.003 µM): 65.2%
- viability, T/C (second compound 0.0949 µM, first compound 0.00949 µM): 7.56%
- viability, T/C (second compound 0.0949 µM, first compound 0.03 µM): 3.47%
- viability, T/C (second compound 0.0949 µM, first compound 0.0949 µM): 3.17%
- viability, T/C (second compound 0.0949 µM, first compound 0.3 µM): 3.37%
- viability, T/C (second compound 0.3 µM, first compound 0.000949 µM): 62.6%
- viability, T/C (second compound 0.3 µM, first compound 0.003 µM): 49.6%
- viability, T/C (second compound 0.3 µM, first compound 0.00949 µM): 6.28%
- viability, T/C (second compound 0.3 µM, first compound 0.03 µM): 2.91%
- viability, T/C (second compound 0.3 µM, first compound 0.0949 µM): 2.13%
- viability, T/C (second compound 0.3 µM, first compound 0.3 µM): 1.99%
